Reference: the NIST ThermoML archive (doi:10.1016/j.jct.2013.10.031)

Experiment: wn = mass fraction of the nth substance listed
Settings: Gas, Burnett expansion method

FCC(F)(F)F [1,1,1,2-tetrafluoroethane] + CCC
Settings | mass density [kg/m3]
272.14 K, 376.9 kPa, w2 = 0.4 | 12.2714
272.14 K, 486.9 kPa, w2 = 0.4 | 16.3457
275.01 K, 306 kPa, w2 = 0.6 | 8.178
275.01 K, 398.5 kPa, w2 = 0.6 | 10.8743
275.01 K, 514 kPa, w2 = 0.6 | 14.4598
275.02 K, 233.7 kPa, w2 = 0.6 | 6.1499
275.03 K, 233.5 kPa, w2 = 0.55 | 6.3604
275.04 K, 177.6 kPa, w2 = 0.55 | 4.7832
275.04 K, 259 kPa, w2 = 0.65 | 6.6072
275.04 K, 397.9 kPa, w2 = 0.55 | 11.2458
275.04 K, 513.5 kPa, w2 = 0.55 | 14.954
275.05 K, 134.8 kPa, w2 = 0.55 | 3.597
275.05 K, 197.5 kPa, w2 = 0.65 | 4.9688
275.05 K, 305.8 kPa, w2 = 0.55 | 8.4571
275.05 K, 338.2 kPa, w2 = 0.65 | 8.7857
275.06 K, 150.2 kPa, w2 = 0.65 | 3.7365
275.06 K, 438.6 kPa, w2 = 0.65 | 11.682
276.01 K, 525 kPa, w2 = 0.5 | 16.127
276.07 K, 240.8 kPa, w2 = 0.5 | 6.8235
276.07 K, 314.5 kPa, w2 = 0.5 | 9.08914
276.08 K, 138.3 kPa, w2 = 0.5 | 3.84563
276.08 K, 182.4 kPa, w2 = 0.5 | 5.12246
276.08 K, 408.6 kPa, w2 = 0.5 | 12.1069
276.09 K, 131.9 kPa, w2 = 0.4 | 3.96275
276.09 K, 173.8 kPa, w2 = 0.4 | 5.27854
276.09 K, 228.4 kPa, w2 = 0.4 | 7.03132
276.09 K, 299.1 kPa, w2 = 0.4 | 9.36594
276.09 K, 389.5 kPa, w2 = 0.4 | 12.4758
276.09 K, 503.4 kPa, w2 = 0.4 | 16.618
276.23 K, 613 kPa, w2 = 0.45 | 19.9443
276.24 K, 369.2 kPa, w2 = 0.45 | 11.24
276.25 K, 215.6 kPa, w2 = 0.45 | 6.3345
276.25 K, 282.9 kPa, w2 = 0.45 | 8.43787
276.25 K, 478.6 kPa, w2 = 0.45 | 14.9718
276.26 K, 163.8 kPa, w2 = 0.45 | 4.75547
278.98 K, 613.4 kPa, w2 = 0.55 | 18.0169
278.99 K, 431 kPa, w2 = 0.65 | 11.2429
279 K, 193.1 kPa, w2 = 0.65 | 4.7818
279 K, 253.6 kPa, w2 = 0.65 | 6.3584
279 K, 331.6 kPa, w2 = 0.65 | 8.4549
279 K, 555.1 kPa, w2 = 0.65 | 14.9493
279.04 K, 478.7 kPa, w2 = 0.55 | 13.5464
279.05 K, 201 kPa, w2 = 0.6 | 5.1513
279.05 K, 264.1 kPa, w2 = 0.6 | 6.8498
279.06 K, 152.4 kPa, w2 = 0.6 | 3.874
279.06 K, 345.5 kPa, w2 = 0.6 | 9.1083
279.06 K, 369.2 kPa, w2 = 0.55 | 10.1866
279.06 K, 448.9 kPa, w2 = 0.6 | 12.1114
279.06 K, 577.6 kPa, w2 = 0.6 | 16.1046
279.07 K, 163.6 kPa, w2 = 0.55 | 4.3324
279.07 K, 282.8 kPa, w2 = 0.55 | 7.6605
279.08 K, 215.4 kPa, w2 = 0.55 | 5.7608
280.01 K, 670.7 kPa, w2 = 0.4 | 22.729
280.02 K, 180.8 kPa, w2 = 0.4 | 5.41974
280.02 K, 237.8 kPa, w2 = 0.4 | 7.21933
280.02 K, 311.5 kPa, w2 = 0.4 | 9.61644
280.02 K, 405.9 kPa, w2 = 0.4 | 12.8096
280.02 K, 524.7 kPa, w2 = 0.4 | 17.0629
280.17 K, 150 kPa, w2 = 0.45 | 4.28073
280.17 K, 197.2 kPa, w2 = 0.45 | 5.70206
280.17 K, 436.6 kPa, w2 = 0.45 | 13.4767
280.18 K, 257.8 kPa, w2 = 0.45 | 7.59526
280.18 K, 336.4 kPa, w2 = 0.45 | 10.1172
280.18 K, 562.4 kPa, w2 = 0.45 | 17.9508
280.2 K, 176.2 kPa, w2 = 0.5 | 4.88417
280.2 K, 228 kPa, w2 = 0.5 | 6.50598
280.2 K, 295.2 kPa, w2 = 0.5 | 8.66625
280.2 K, 382.2 kPa, w2 = 0.5 | 11.5437
280.2 K, 490.7 kPa, w2 = 0.5 | 15.3768
280.2 K, 626.5 kPa, w2 = 0.5 | 20.4828
282.96 K, 514.9 kPa, w2 = 0.6 | 16.8632
282.98 K, 397.4 kPa, w2 = 0.6 | 10.4251
282.98 K, 629.9 kPa, w2 = 0.6 | 18.4329
282.99 K, 232 kPa, w2 = 0.6 | 5.8957
282.99 K, 301.9 kPa, w2 = 0.65 | 7.5146
282.99 K, 304.4 kPa, w2 = 0.6 | 7.8397
282.99 K, 353.3 kPa, w2 = 0.55 | 9.521
282.99 K, 510.2 kPa, w2 = 0.65 | 13.287
282.99 K, 592.4 kPa, w2 = 0.55 | 16.8344
283 K, 155.9 kPa, w2 = 0.55 | 4.0493
283 K, 176.1 kPa, w2 = 0.6 | 4.4337
283 K, 205.5 kPa, w2 = 0.55 | 5.3845
283 K, 230.2 kPa, w2 = 0.65 | 5.6511
283 K, 270 kPa, w2 = 0.55 | 7.1599
283 K, 393.8 kPa, w2 = 0.65 | 9.9922
283 K, 459.5 kPa, w2 = 0.55 | 12.6599
283 K, 653.6 kPa, w2 = 0.65 | 17.6674
283.01 K, 175 kPa, w2 = 0.65 | 4.2497
283.86 K, 174.7 kPa, w2 = 0.4 | 5.14203
283.87 K, 229.9 kPa, w2 = 0.4 | 6.84912
283.87 K, 301.6 kPa, w2 = 0.4 | 9.12315
283.88 K, 393.6 kPa, w2 = 0.4 | 12.1512
283.9 K, 510.3 kPa, w2 = 0.4 | 16.1858
283.94 K, 655.1 kPa, w2 = 0.4 | 21.5571
284.1 K, 397.4 kPa, w2 = 0.45 | 11.7333
284.1 K, 515.6 kPa, w2 = 0.45 | 15.6293
284.1 K, 662.3 kPa, w2 = 0.45 | 20.819
284.11 K, 176.2 kPa, w2 = 0.45 | 4.96426
284.11 K, 231.9 kPa, w2 = 0.45 | 6.61256
284.11 K, 304.4 kPa, w2 = 0.45 | 8.80835
284.11 K, 711.7 kPa, w2 = 0.5 | 21.5401
284.12 K, 555.4 kPa, w2 = 0.5 | 16.1702
284.13 K, 189.6 kPa, w2 = 0.5 | 5.13602
284.13 K, 249.8 kPa, w2 = 0.5 | 6.84131
284.13 K, 327.9 kPa, w2 = 0.5 | 9.11297
284.13 K, 428.3 kPa, w2 = 0.5 | 12.139
287 K, 196.2 kPa, w2 = 0.6 | 4.8811
287 K, 768.5 kPa, w2 = 0.65 | 20.9537
287.01 K, 258.3 kPa, w2 = 0.6 | 6.4904
287.01 K, 274.8 kPa, w2 = 0.65 | 6.7019
287.01 K, 311.4 kPa, w2 = 0.55 | 8.1881
287.01 K, 338.5 kPa, w2 = 0.6 | 8.6303
287.01 K, 406.7 kPa, w2 = 0.55 | 10.8878
287.01 K, 527.4 kPa, w2 = 0.55 | 14.4779
287.01 K, 571.1 kPa, w2 = 0.6 | 15.26
287.01 K, 603.8 kPa, w2 = 0.65 | 15.7575
287.01 K, 677.5 kPa, w2 = 0.55 | 19.2516
287.01 K, 730.6 kPa, w2 = 0.6 | 20.2911
287.02 K, 180 kPa, w2 = 0.55 | 4.6307
287.02 K, 209 kPa, w2 = 0.65 | 5.0401
287.02 K, 237.2 kPa, w2 = 0.55 | 6.1576
287.02 K, 359.7 kPa, w2 = 0.65 | 8.9115
287.02 K, 441.6 kPa, w2 = 0.6 | 11.4756
287.02 K, 467.8 kPa, w2 = 0.65 | 11.85
287.89 K, 145.9 kPa, w2 = 0.4 | 4.20423
287.89 K, 192.3 kPa, w2 = 0.4 | 5.60013
287.89 K, 253 kPa, w2 = 0.4 | 7.45965
287.89 K, 331.1 kPa, w2 = 0.4 | 9.93648
287.9 K, 431.5 kPa, w2 = 0.4 | 13.2354
287.9 K, 558 kPa, w2 = 0.4 | 17.6298
287.93 K, 714.8 kPa, w2 = 0.4 | 23.4815
288.06 K, 650.7 kPa, w2 = 0.45 | 19.9802
288.07 K, 171.7 kPa, w2 = 0.45 | 4.76422
288.07 K, 226.1 kPa, w2 = 0.45 | 6.34615
288.07 K, 297 kPa, w2 = 0.45 | 8.45356
288.07 K, 388.5 kPa, w2 = 0.45 | 11.2604
288.07 K, 505 kPa, w2 = 0.45 | 14.9994
288.07 K, 827.4 kPa, w2 = 0.45 | 26.6134
288.18 K, 242.5 kPa, w2 = 0.5 | 6.52495
288.18 K, 416.8 kPa, w2 = 0.5 | 11.5774
288.19 K, 184.1 kPa, w2 = 0.5 | 4.89841
288.19 K, 318.7 kPa, w2 = 0.5 | 8.69128
288.19 K, 541.6 kPa, w2 = 0.5 | 15.4214
288.19 K, 696.9 kPa, w2 = 0.5 | 20.5413
291 K, 851.2 kPa, w2 = 0.55 | 24.7999
291.01 K, 519.6 kPa, w2 = 0.55 | 14.0252
291.01 K, 669.4 kPa, w2 = 0.55 | 18.65
291.02 K, 399.8 kPa, w2 = 0.55 | 10.5472
291.03 K, 305.7 kPa, w2 = 0.55 | 7.9316
291.04 K, 168.3 kPa, w2 = 0.6 | 4.1049
291.04 K, 222.1 kPa, w2 = 0.6 | 5.4582
291.04 K, 232.6 kPa, w2 = 0.55 | 5.9647
291.04 K, 292.1 kPa, w2 = 0.6 | 7.2581
